Data taken from patent US10696651B2, “Heterocyclic compound” (Takeda Pharmaceutical Company Limited, priority 2016, dated 2020).
Structures can show the parent of a compound that is named as a salt. Where two headings read alike, the source gives them in different places.

How the values were obtained:
[1] = biological target: T1, human GCN2 full-length protein (Homo sapiens, UniProt Q9P2K8); assay: GCN2 enzyme inhibition assay (LanthaScreen TR-FRET); assay type: biochemical; details: GCN2 enzyme inhibitory activity at compound concentration of 3 μM, read-out: inhibitory rate
T1 construct: purchased Carna Biosciences, Inc
T1 sequence (Q9P2K8 whole entry): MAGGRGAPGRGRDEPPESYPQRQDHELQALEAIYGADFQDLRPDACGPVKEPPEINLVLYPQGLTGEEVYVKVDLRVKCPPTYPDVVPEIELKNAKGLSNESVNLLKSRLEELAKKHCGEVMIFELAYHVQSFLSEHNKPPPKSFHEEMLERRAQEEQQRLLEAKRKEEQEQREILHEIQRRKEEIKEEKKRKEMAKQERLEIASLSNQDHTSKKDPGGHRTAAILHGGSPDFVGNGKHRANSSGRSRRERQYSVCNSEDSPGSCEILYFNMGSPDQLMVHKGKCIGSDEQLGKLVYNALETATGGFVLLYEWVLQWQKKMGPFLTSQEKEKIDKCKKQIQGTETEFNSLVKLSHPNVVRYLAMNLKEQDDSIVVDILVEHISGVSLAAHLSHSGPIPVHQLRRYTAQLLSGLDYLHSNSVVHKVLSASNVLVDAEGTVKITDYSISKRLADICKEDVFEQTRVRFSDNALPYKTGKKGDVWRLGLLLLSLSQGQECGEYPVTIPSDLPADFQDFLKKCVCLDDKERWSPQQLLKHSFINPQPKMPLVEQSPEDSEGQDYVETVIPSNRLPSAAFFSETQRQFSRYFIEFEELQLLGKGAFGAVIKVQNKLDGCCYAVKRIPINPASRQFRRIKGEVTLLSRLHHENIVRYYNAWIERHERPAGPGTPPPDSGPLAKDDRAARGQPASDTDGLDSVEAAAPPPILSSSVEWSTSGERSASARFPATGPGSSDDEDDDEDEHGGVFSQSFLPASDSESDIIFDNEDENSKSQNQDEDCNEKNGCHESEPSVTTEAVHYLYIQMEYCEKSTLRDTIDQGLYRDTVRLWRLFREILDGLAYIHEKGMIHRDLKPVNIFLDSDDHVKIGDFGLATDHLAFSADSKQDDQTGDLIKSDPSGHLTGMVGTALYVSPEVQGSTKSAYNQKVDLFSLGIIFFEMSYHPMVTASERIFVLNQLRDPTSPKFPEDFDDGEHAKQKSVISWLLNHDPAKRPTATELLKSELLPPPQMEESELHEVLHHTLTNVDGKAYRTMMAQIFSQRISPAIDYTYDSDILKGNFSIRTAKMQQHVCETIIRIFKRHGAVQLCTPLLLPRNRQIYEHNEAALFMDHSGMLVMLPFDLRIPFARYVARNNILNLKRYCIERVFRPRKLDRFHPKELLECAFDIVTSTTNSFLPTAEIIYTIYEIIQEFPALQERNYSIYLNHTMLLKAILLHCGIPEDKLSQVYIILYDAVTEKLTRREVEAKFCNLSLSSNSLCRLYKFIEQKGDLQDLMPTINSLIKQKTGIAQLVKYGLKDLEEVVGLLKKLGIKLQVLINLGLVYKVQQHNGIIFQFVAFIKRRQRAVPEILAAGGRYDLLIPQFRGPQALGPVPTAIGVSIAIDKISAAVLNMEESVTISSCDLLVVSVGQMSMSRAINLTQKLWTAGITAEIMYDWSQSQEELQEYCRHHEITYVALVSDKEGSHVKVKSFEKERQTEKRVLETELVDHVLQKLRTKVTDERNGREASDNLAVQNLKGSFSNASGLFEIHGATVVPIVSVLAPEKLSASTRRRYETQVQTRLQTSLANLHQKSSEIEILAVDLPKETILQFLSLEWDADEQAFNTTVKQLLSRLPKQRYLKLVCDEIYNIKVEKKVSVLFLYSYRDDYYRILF
Method: GCN2 enzyme was preserved at -70° C. and used. The GCN2 enzyme inhibitory activity of the test compound was measured by the LanthaScreenTR-FRET (Time Resolved Fluorescence Resonance Energy Transfer) method (manufactured by ThermoFisher). […] Then, GCN2 enzyme solution diluted with the assay buffer was added by 2 μL to each well. The enzyme solution was not added to a part of the wells to give a control group. After incubation at room temperature for 1 hr, 570 μM ATP solution containing 390 nM […] physiological protein substrate (ThermoFisher) was added by 2 μL. After reaction at room temperature for 1 hr, TR-FRET Dilution Buffer (ThermoFisher) containing 4 nM Terbium-labeled anti-elF2alpha [[…]] antibody (ThermoFisher) dissolved therein was added by 2 μL to each well. After standing at room temperature for 1 hr, time decomposition fluorescence measurement was performed on platereader Envision (manufactured by PerkinElmer).

[2] = tested on: osteosarcoma cell line U-2-OS; assay: In vitro cell proliferation inhibition assay (CellTiter-Glo, low amino acid media); assay type: cell-based; details: Homo sapiens, U2OS, 72 h, cell proliferation inhibitory rate, McCoy's 5A low amino acid media
Method: A cell suspension (40 μL) (1000 cells/well) of osteosarcoma cell line U-2-OS obtained from ATCC (American Type Culture Collection) was seeded on a 384 plate using McCoy's 5A low amino acid media (amino acid content 25%). The seeded cells were incubated (37° C., 5% CO2) overnight to 24 hr at the longest. Each example compound was dissolved (10 mM) in DMSO, delivered to wells by using TECAN HP D300 (TECAN), and the plate was incubated for 72 hr (37° C., 5% CO2). A well without addition of compound was treated similarly as a control group. Celltiter-Glo (registered trade mark) Luminescent Cell Viability Assay reagent (Promega KK) equilibrated at room temperature was added (40 μL/well) to cells in each well before compound treatment (untreated group) and 72 hours after compound treatment. After incubation for 10 min, cell proliferation inhibitory rate was measured by the amount of ATP which is a cell viability marker. Luminescence of cells showing ATP amount was measured using ARVO MX (PerkinElmer). Based on the luminescence values of the untreatment group, the control group without addition of Example compound solution, and the treatment group with addition of Example compound, the cell proliferation inhibitory rate (%) of the test compound at a compound concentration of 100 nM was calculated by the following formula and the results thereof are shown in Tables 4-1, 4-2. Inhibitory rate (%)=(1−(luminescence value of treatment group−luminescence value of untreatment group)÷(luminescence value of control group−luminescence value of untreatment group))×100

inhibition at 3 µM ([1]; Table 3-1) [%] | inhibition at 3 µM ([1]; Table 3-2) [%] | Compound | inhibition at 0.1 µM ([2]; Table 4-1) [%] | inhibition at 0.1 µM ([2]; Table 4-2) [%]
– | 99 | COc1c(CO)cc(Cl)cc1S(=O)(=O)Nc1ccc(F)c(C#Cc2cnc(N[C@H]3CC[C@H](O)CC3)nc2)c1F [Example 153, 5-chloro-N-(2,4-difluoro-3-((2-((trans-4-hydroxycyclohexyl)amino)pyrimidin-5-yl)ethynyl)phenyl)-3-(hydroxymethyl)-2-methoxybenzenesulfonamide] | – | 78
– | 99 | Cc1ncc(Cl)cc1S(=O)(=O)Nc1ccc(F)c(C#Cc2cnc(N)nn2)c1F [Example 158, N-(3-((3-amino-1,2,4-triazin-6-yl)ethynyl)-2,4-difluorophenyl)-5-chloro-2-methylpyridine-3-sulfonamide] | – | 43
– | 99 | Nc1ncc(C#Cc2c(F)ccc(NS(=O)(=O)c3cc(Cl)cc4c3OCC4O)c2F)cn1 (stereo not shown) [Example 159, N-(3-((2-aminopyrimidin-5-yl)ethynyl)-2,4-difluorophenyl)-5-chloro-3-hydroxy-2,3-dihydro-1-benzofuran-7-sulfonamide] | – | 60
– | 99 | Nc1ncc(C#Cc2c(F)ccc(NS(=O)(=O)c3cc(Cl)cnc3OC(F)F)c2F)cn1 [Example 162, N-(3-((2-aminopyrimidin-5-yl)ethynyl)-2,4-difluorophenyl)-5-chloro-2-(difluoromethoxy)pyridine-3-sulfonamide] | – | 35
– | 100 | Cc1ncc(Cl)cc1S(=O)(=O)Nc1ccc(F)c(C#Cc2cnc(Nc3cnn(C)c3)nc2)c1F [Example 163, 5-chloro-N-(2,4-difluoro-3-((2-((1-methyl-1H-pyrazol-4-yl)amino)pyrimidin-5-yl)ethynyl)phenyl)-2-methylpyridine-3-sulfonamide] | – | 88
– | 96 | Nc1ncc(C#Cc2c(F)ccc(NS(=O)(=O)c3cc(Cl)cn4c(Cl)cnc34)c2F)cn1 [Example 165, N-(3-((2-aminopyrimidin-5-yl)ethynyl)-2,4-difluorophenyl)-3,6-dichloroimidazo[1,2-a]pyridine-8-sulfonamide] | – | 27
– | 99 | COc1c(CO)cc(Cl)cc1S(=O)(=O)Nc1ccc(F)c(C#Cc2cnc(NC3CC3)nn2)c1F [Example 168, 5-chloro-N-(3-((3-(cyclopropylamino)-1,2,4-triazin-6-yl)ethynyl)-2,4-difluorophenyl)-3-(hydroxymethyl)-2-methoxybenzenesulfonamide] | – | 57
– | 100 | CNc1ncc(Cl)cc1S(=O)(=O)Nc1ccc(F)c(C#Cc2cnc(N)nc2)c1F [Example 171, N-(3-((2-aminopyrimidin-5-yl)ethynyl)-2,4-difluorophenyl)-5-chloro-2-(methylamino)pyridine-3-sulfonamide] | – | 82
– | 99 | Nc1ncc(C#Cc2c(F)ccc(NS(=O)(=O)c3cc(Cl)cc4ccoc34)c2F)cn1 [Example 173, N-(3-((2-aminopyrimidin-5-yl)ethynyl)-2,4-difluorophenyl)-5-chloro-1-benzofuran-7-sulfonamide] | – | 76

Second part, the molecule before the results:

Compound | inhibition at 3 µM ([1]; Table 3-1) [%] | inhibition at 3 µM ([1]; Table 3-2) [%] | inhibition at 0.1 µM ([2]; Table 4-1) [%] | inhibition at 0.1 µM ([2]; Table 4-2) [%]
O=S(=O)(Nc1ccc(F)c(C#Cc2cnc3[nH]ncc3c2)c1F)c1cc(Cl)ccc1F [Example 26, 5-chloro-N-(2,4-difluoro-3-(1H-pyrazolo[3,4-b]pyridin-5-ylethynyl)phenyl)-2-fluorobenzenesulfonamide TFA Salt] | 99 | – | 41 | –
Cc1ccc(Cl)cc1S(=O)(=O)Nc1ccc(F)c(C#Cc2cnc(N)c(C)n2)c1F [Example 31, N-(3-((5-amino-6-methylpyrazin-2-yl)ethynyl)-2,4-difluorophenyl)-5-chloro-2-methylbenzenesulfonamide] | 99 | – | 53 | –
COc1c(Cl)cc(Cl)cc1S(=O)(=O)Nc1ccc(F)c(C#Cc2cnc3[nH]ncc3c2)c1F [Example 33, 3,5-dichloro-N-(2,4-difluoro-3-(1H-pyrazolo[3,4-b]pyridin-5-ylethynyl)phenyl)-2-methoxybenzenesulfonamide] | 98 | – | 40 | –
CNc1ncc(C#Cc2c(F)ccc(NS(=O)(=O)c3cc(Cl)ccc3Cl)c2F)cn1 [Example 37, 2,5-dichloro-N-(2,4-difluoro-3-((2-(methylamino)pyrimidin-5-yl)ethynyl)phenyl)benzenesulfonamide TFA Salt] | 98 | – | 45 | –
O=S(=O)(Nc1ccc(F)c(C#Cc2cnc3[nH]ncc3c2)c1F)c1cccc(Cl)c1Cl [Example 38, 2,3-dichloro-N-(2,4-difluoro-3-(1H-pyrazolo[3,4-b]pyridin-5-ylethynyl)phenyl)benzenesulfonamide TFA Salt] | 99 | – | 22 | –
COc1c(CO)cc(Cl)cc1S(=O)(=O)Nc1ccc(F)c(C#Cc2cnc(N)nc2)c1F [Example 129, N-(3-((2-aminopyrimidin-5-yl)ethynyl)-2,4-difluorophenyl)-5-chloro-3-(hydroxymethyl)-2-methoxybenzenesulfonamide] | – | 99 | – | 70
COc1c(CO)cc(Cl)cc1S(=O)(=O)Nc1ccc(F)c(C#Cc2cnc(N)nn2)c1F [Example 130, N-(3-((3-amino-1,2,4-triazin-6-yl)ethynyl)-2,4-difluorophenyl)-5-chloro-3-(hydroxymethyl)-2-methoxybenzenesulfonamide] | – | 99 | – | 68
CCNc1ncc(C#Cc2c(F)ccc(NS(=O)(=O)c3cc(Cl)cc(CO)c3OC)c2F)cn1 [Example 137, 5-chloro-N-(3-((2-(ethylamino)pyrimidin-5-yl)ethynyl)-2,4-difluorophenyl)-3-(hydroxymethyl)-2-methoxybenzenesulfonamide] | – | 99 | – | 75
COc1c(CO)cc(Cl)cc1S(=O)(=O)Nc1ccc(F)c(C#Cc2cnc(NC3CC3)nc2)c1F [Example 138, 5-chloro-N-(3-((2-(cyclopropylamino)pyrimidin-5-yl)ethynyl)-2,4-difluorophenyl)-3-(hydroxymethyl)-2-methoxybenzenesulfonamide] | – | 99 | – | 87
COc1c(CO)cc(Cl)cc1S(=O)(=O)Nc1ccc(F)c(C#Cc2cnc(NC3COC3)nc2)c1F [Example 140, 5-chloro-N-(2,4-difluoro-3-((2-(oxetan-3-ylamino)pyrimidin-5-yl)ethynyl)phenyl)-3-(hydroxymethyl)-2-methoxybenzenesulfonamide] | – | 99 | – | 76
COc1c(CO)cc(Cl)cc1S(=O)(=O)Nc1ccc(F)c(C#Cc2cnc(NC3CCOC3)nc2)c1F (stereo not shown) [Example 141, 5-chloro-N-(2,4-difluoro-3-((2-(tetrahydrofuran-3-ylamino)pyrimidin-5-yl)ethynyl)phenyl)-3-(hydroxymethyl)-2-methoxybenzenesulfonamide] | – | 99 | – | 75
COc1c(CO)cc(Cl)cc1S(=O)(=O)Nc1ccc(F)c(C#Cc2cnc(NCC3CCOC3)nc2)c1F (stereo not shown) [Example 145, 5-chloro-N-(2,4-difluoro-3-((2-((tetrahydrofuran-3-ylmethyl)amino)pyrimidin-5-yl)ethynyl)phenyl)-3-(hydroxymethyl)-2-methoxybenzenesulfonamide] | – | 99 | – | 69
COc1c(CO)cc(Cl)cc1S(=O)(=O)Nc1ccc(F)c(C#Cc2cnc(NCCO)nc2)c1F [Example 149, 5-chloro-N-(2,4-difluoro-3-((2-((2-hydroxyethyl)amino)pyrimidin-5-yl)ethynyl)phenyl)-3-(hydroxymethyl)-2-methoxybenzenesulfonamide] | – | 99 | – | 70
COc1c(CO)cc(Cl)cc1S(=O)(=O)Nc1ccc(F)c(C#Cc2cnc(N[C@H](C)CO)nc2)c1F [Example 150, 5-chloro-N-(2,4-difluoro-3-((2-(((2R)-1-hydroxypropan-2-yl)amino)pyrimidin-5-yl)ethynyl)phenyl)-3-(hydroxymethyl)-2-methoxybenzenesulfonamide] | – | 99 | – | 77
